Counter-ions that a name gives are not always drawn. Like-named read-outs stand apart in the source and are kept apart here.
How the values were obtained:
[1] = test system: DU145; test: Cell viability assay (resazurin), dose-response; format: cell-based; conditions: Homo sapiens, DU-145, 72 h, DU145, day 3, resazurin
Description: (§1) Briefly, PCa cell lines were seeded into 96-well plates at 5000 cells per well and incubated overnight at 37 °C in 5% CO2. Subsequently, cells were treated with a range of concentrations of each epidrug and their respective vehicle (dH2O for hydralazine; dimethyl sulfoxide (DMSO, Sigma-Aldrich, St. Louis, MO, USA) for panobinostat and culture medium for valproic acid) during three consecutive days, exchanging the medium every 24 h. Three experimental replicates of three biological replicates were used for each assay.
(§2) The cell viability was evaluated using resazurin (Canvax Biotech, Córdoba, Spain) at 0 h and 72 h of treatment. The culture medium was removed, and cells were incubated for three hours in the dark at 37 °C and 5% CO2 with 100 μL of 1:10 resazurin solution in culture medium. […] The OD values were corrected using resazurin solution as blank.

[2] = test system: 22Rv1; test: Cell viability assay (resazurin), dose-response; format: cell-based; conditions: Homo sapiens, 22Rv1, 72 h, 22Rv1, day 3, resazurin
Description: as §1, §2

[3] = test system: PC-3; test: Cell viability assay (resazurin), dose-response; format: cell-based; conditions: Homo sapiens, 72 h; PC-3, day 3, resazurin
Description: as §1, §2

[4] = test system: LNCaP; test: Cell viability assay (resazurin), dose-response; format: cell-based; conditions: Homo sapiens, 72 h, day 3, resazurin
Description: as §1, §2

[5] = test system: WPMY-1; test: Cell viability assay (resazurin), dose-response; format: cell-based; conditions: Homo sapiens, WPMY-1, 72 h, WPMY-1, day 3, resazurin
Description: as §1, §2

[6] = test system: RWPE-1; test: Cell viability assay (resazurin), dose-response; format: cell-based; conditions: Homo sapiens, RWPE-1, 72 h, RWPE-1, day 3, resazurin
Description: as §1, with “assay. The cell viability was evaluated using resazurin ([…] Biotech, Córdoba, Spain) at 0 h and 72 h of treatment. The culture medium was removed, and cells were incubated for three hours in the dark at 37 °C and 5% CO2 with 100 μL of 1:10 resazurin solution in culture medium. […] The OD values were corrected using resazurin solution as blank.” for “assay.”

[7] = test system: DU145; test: Proliferation assay (BrdU ELISA); format: cell-based, Human; conditions: day 3, Hydra 50 µM, Pano 5 nM, alone or combined, compared with the vehicle
Description: The cell proliferation ELISA BrdU (5-bromo-2′ deoxyuridine) assay (Roche Applied Sciences, Germany) was performed at 72 h of treatment. Cells were plated into 96-well plates at a density of 5000 cells per well, and at 0 h and 72 h of treatment, cells were incubated with 10 µM BrdU labeling solution for 8 h. After removing the culture medium, the cells were fixed with FixDenat solution for 30 min at room temperature. Then, the anti-BrdU-POD antibody (1:100) was added. After three washes with PBS 1 ×, the immune complexes were detected by the subsequent substrate reaction. The reaction product was quantified in a microplate reader (FLUOstar Omega, BMG Labtech, Ortenberg, Germany) at a wavelength of 450 nm with background subtraction at 690 nm. All ODs were normalized for the 0 h time point as well as to the vehicle. Three biological and three experimental replicates were used for each condition.

[8] = test system: PC-3; test: Colony formation assay; format: cell-based, Human; conditions: 3 days exposure, 7 additional days, Hydra 100 µM, Pano 10 nM
Description: (§3) PCa cells were seeded in 6-well culture plates at specific concentrations for each cell line, as detailed in Table S1. After epidrug exposure, cells were incubated at 37 °C and 5% CO2 for 7 days and 10 days (LNCaP). Next, colonies were fixed in methanol (Supelco, Sigma-Aldrich, St. Louis, MO, USA), washed in PBS 1 × and stained with Hemacolor Solution II and III (Sigma-Aldrich, St. Louis, MO, USA). Three biological and three experimental replicates were used for each condition.

[9] = test system: DU145; test: Synergy assay, 6 × 6 checkerboard, growth inhibition by resazurin, CI by CompuSyn; format: cell-based; conditions: Homo sapiens, DU-145, 72 h, three days
Description: Each plate contained 6 × 6 dose matrix blocks with several epidrug concentrations below and above each respective EC50 value. […] The combination index (CI) was calculated using CompuSyn software, where <1 indicates synergism, =1 is an additive effect and >1 indicates antagonism.

[10] = cited from earlier work
[11] = test system: RWPE-1; test: Alkaline comet assay; format: cell-based, Human; conditions: Pano 10 nM
Text: Three biological replicates were used for each condition.

[12] = test system: DU145; test: Invasion transwell assay; format: cell-based, Human; conditions: 24 h after seeding, Hydra 50 µM, Pano 5 nM, differences not statistically significant
Description: (§4) Cell invasion and migration were determined using Falcon® Permeable Support for 24-well Plate with 8.0 µm Transparent PET Membrane (Corning, New York, NY, USA) and Nunc® Cell Culture Inserts in 24-well Nunclon Delta surface plate (Sigma-Aldrich, St. Louis, MO, USA), respectively. Briefly, cells were harvested after treatment and were added to the upper chamber in serum-free medium, according to its optimized density (2.5 × 10^4 cells for every cell line except from LNCaP and 22Rv1 with 5 × 10^4 cells). Media containing 10% FBS was added to the lower chamber. After 24 h incubation at 37 °C and 5% CO2, the cells remaining on the upper side of the membrane were removed with cotton swabs, and those on the lower surface of the membrane were fixed in methanol (Supelco, Sigma-Aldrich, St. Louis, MO, USA), washed in PBS 1 × and stained with Crystal Violet (Active motif, Carlsbad, CA, USA). All the inserts were photographed with stereomicroscope Olympus S2X16 using a digital camera Olympus SC180 (scale bar 1 mm) at 12.5 × magnification. Five fields within each insert were selected and photographed at 115 × and further counted using ImageJ software Cell Counter Plugin. The mean of the counted cells was calculated, divided by the area of the microscope viewing field and then multiplied by the entire area of the insert. Three biological replicates were used for each condition.

[13] = test system: LNCaP; test: Colony formation assay; format: cell-based, Human; conditions: 3 days exposure, 10 additional days, Hydra 100 µM, Pano 5 nM
[14] = test system: DU145; test: Alkaline comet assay; format: cell-based, Human
Description: After epidrug exposure, 30,000 cells were harvested by trypsinization, washed in PBS, re-suspended in 0.5% low-melting point agarose (w/v) and immediately placed on a microscope slide previously covered with 1% normal-melting point agarose (w/v). Then, the cells were immersed in lysis solution (2.5 M NaCl, 100 mM Na2EDTA, 10 mM Tris Base and 1% Triton X-100, pH 10) at 4 °C during 2 h in the dark. Afterwards, the slides were incubated in an alkaline electrophoresis buffer (300 mM NaOH, 1 mM Na2EDTA, pH 13) for 40 min at 4 °C to allow DNA unwinding. Single cell gel electrophoresis was performed on a horizontal electrophoresis platform for 30 min at 21 V, 300 mA, 4 °C. Next, slides were incubated in a neutralization buffer (0.4 M Tris-Base, pH 7.5) for 10 min, followed by staining with DAPI. Comet analysis was done using OpenComet v.1.3.1. Global DNA damage (SSB and DSB) evaluation was determined by measuring tail moment (tail % DNA × means of head × tail distance) and representative pictures taken with Olympus IX51 microscope at 200 × magnification (scale bar 50 μm). A sampling of at least 50 comets was included in the analysis. Three biological replicates were used for each condition.

[15] = test system: DU145; conditions: 3 days exposure, 7 additional days, Hydra 50 µM, Pano 5 nM
Description: as §3

[16] = test system: DU145; test: Migration transwell assay; format: cell-based, Human; conditions: 24 h, Hydra 50 µM, Pano 5 nM, no significant differences
Description: as §4

[17] = test system: PC-3; conditions: 24 h after seeding, Hydra 100 µM, Pano 10 nM, differences not statistically significant
Description: as §4

[18] = Clinical bioavailability and corresponding concentration at maximum clinical dose; format: in vivo; conditions: 200 mg/day

Row | SMILES | EC50 [1] [µM] | EC50 [2] [µM] | EC50 [3] [µM] | EC50 [4] [µM] | EC50 [5] [mM] | cell proliferation (BrdU incorporation) [7] | cell invasion (transwell) [12] | other results
1 | CCCC(CCC)C(=O)O [Valproic acid] | 2000 to 3000 | 2000 to 3000 | 8540 | 2000 to 3000 | 4.46 | – | – | EC50 [6]: 8.97 mM
2 | Cc1[nH]c2ccccc2c1CCNCc1ccc(/C=C/C(=O)NO)cc1 [Panobinostat] | 0.00697 | 0.014 | 0.0289 | 0.0247 | 2.41e-05 | but not panobinostat, led to considerable proliferation inhibition | but not panobinostat, also reduced invasion | colony formation [8]: showed a higher impact; inhibition at 0.005 µM ([9]; panobinostat alone at the selected concentration (5 nM, Table 1)): 48.9%; bioavailability [10]: 21.4%; tail moment (comet assay) [11]: significantly increased; colony formation [13]: showed a higher impact; DNA damage (tail moment, comet assay) ([14]; DU145, Hydra 50 µM, Pano 5 nM, alone or combined): increased DNA damage
3 | NNc1nncc2ccccc12 [Hydralazine, Hydralazine hydrochloride] | 50 | 73.1 | 143 | 87.5 | – | considerable proliferation inhibition | reduced invasion | colony formation (clonogenic capacity) [15]: almost no colonies were apparent; cell migration (transwell) [16]: reduced cell migration; inhibition at 50 µM ([9]; hydralazine alone at the selected concentration (50 µM, Table 1)): 42.8%; cell invasion (transwell) [17]: two times higher than that of panobinostat; bioavailability ([10]; fast acetylators): 16%; bioavailability ([10]; slow acetylators): 35%; concentration corresponding to the maximum clinically recommended dose ([18]; bioavailability 16%, fast acetylators): ~0.2 M; concentration corresponding to the maximum clinically recommended dose ([18]; bioavailability 35%, slow acetylators): ~0.44 M; DNA damage (tail moment, comet assay) [14]: increased DNA damage

— article PMC8308508, “Hydralazine and Panobinostat Attenuate Malignant Properties of Prostate Cancer Cell Lines” (Pharmaceuticals, 2021)
